Test results taken from patent US20250340537A1, “PHARMACEUTICALLY ACTIVE COMPOUNDS, COMPOSITIONS, AND METHODS FOR MODULATING PENDRIN” (ARBORMED Co., Ltd., priority 2022, published 2025).

Target: T1, H723R-pendrin (Homo sapiens, UniProt O43511, H723R)
T1 construct: expressed in transfected cells; host or cells: PANC-1
T1 sequence (O43511 1-780 H723R): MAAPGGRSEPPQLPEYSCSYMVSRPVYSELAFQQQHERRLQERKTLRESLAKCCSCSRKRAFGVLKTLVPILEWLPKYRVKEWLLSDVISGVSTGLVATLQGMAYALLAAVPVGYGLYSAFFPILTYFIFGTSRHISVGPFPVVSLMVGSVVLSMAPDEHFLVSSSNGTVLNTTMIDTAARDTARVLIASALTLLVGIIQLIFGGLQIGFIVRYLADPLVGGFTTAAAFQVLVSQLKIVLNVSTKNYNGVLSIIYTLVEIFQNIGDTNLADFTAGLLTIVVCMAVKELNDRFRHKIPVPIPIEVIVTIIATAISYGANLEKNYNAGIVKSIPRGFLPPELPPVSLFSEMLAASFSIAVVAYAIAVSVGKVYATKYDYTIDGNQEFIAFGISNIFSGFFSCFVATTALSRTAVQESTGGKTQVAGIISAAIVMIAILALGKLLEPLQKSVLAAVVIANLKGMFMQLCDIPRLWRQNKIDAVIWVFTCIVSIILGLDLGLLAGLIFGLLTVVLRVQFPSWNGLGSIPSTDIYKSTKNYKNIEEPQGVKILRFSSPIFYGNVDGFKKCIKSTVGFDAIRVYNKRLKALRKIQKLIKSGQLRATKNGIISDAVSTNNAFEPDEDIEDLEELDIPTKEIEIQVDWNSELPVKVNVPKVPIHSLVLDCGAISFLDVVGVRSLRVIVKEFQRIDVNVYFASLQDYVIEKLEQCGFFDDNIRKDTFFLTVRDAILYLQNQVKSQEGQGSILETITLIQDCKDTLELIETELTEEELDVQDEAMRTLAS
Test: YFP fluorescence quenching assay (Cl−/I− exchange activity of pendrin)
Format: cell-based
Details: PANC-1 cells stably expressing human H723R-pendrin and YFP-F46L/H148Q/I152L; compound incubation 20-24 hours; iodide influx
Text: Halide sensor YFP F46L/H148Q/I152L is quenched by halide ion like Iodide. When such YFP is expressed in a cell, it expresses in the cytoplasm.
To measure H723R-PDS activity, PANC-1 cells were stably transfected with halide sensors YFP-F46L/H148Q/I152L and H723R-PDS which has problems with membrane trafficking due to misfolding.
If the cell-treated drug is a corrector for H723R-PDS, H723R-PDS will translocate normally to the plasma membrane.
At this time, when treated with a high-concentration iodide solution outside the cell, iodide enters the cell due to the Cl−/I− exchange activity of pendrin, and the fluorescence of the halide sensor YFP decreases.
PANC-1 cells were cultured in Dulbecco's Modified Eagle's Medium with 10% fetal bovine serum, 2 mM glutamine, 100 units/ml penicillin and 100 µg/ml streptomycin. For high-throughput screening, PANC-1 cells were stably transfected with human H723R-pendrin and halide sensor YFP-F46L/H148Q/I152L.
PANC-1 cells expressing human H723R-pendrin and YFP-F46L/H148Q/I152L were plated in 96-well microplates at a density of 2×10^4 cells per well and grown for 20-24 hours at 37° C. (90% humidity 5% CO2). Then these cells were treated with 50 μl growth medium containing test compounds and incubated for 20-24 hours. For YFP quenching assay, each well of the 96-well plate was washed 2 times with 200 μl of PBS, and it was filled with 50 μl of HEPES-buffered solution (140 mM NaCl, 5 mM KCl, 1 mM MgCl2, 1 mM CaCl2, 10 mM D-glucose, 10 mM HEPES; pH 7.4 with NaOH). After 10 minutes of incubation at 37° C., the 96-well plate was moved on the FLUOstar Omega Microplate Reader (BMG Labtech, Ortenberg, Germany) for a fluorescence assay. Each well was assayed individually for H723R-pendrin mediated I^− influx by recording fluorescence (495±15 nm excitation, 520±20 nm emission) every 400 ms for 1 second (baseline). Then, 50 μL of NaI-substituted HEPES-buffered solution (NaI replacing NaCl) was added using a liquid injector at 1 second and YFP fluorescence was recorded every 400 ms for 10 seconds. The initial iodide influx rate was determined from the initial slope of fluorescence by nonlinear regression, after the infusion of iodide.
It is indicated as EC50 with the following key: A=EC50 less than 5 uM; B=EC50 greater than 5 uM, but less than 10 uM; C=EC50 greater than 10 uM.

Row | SMILES | EC50
1 | COc1ccc(-c2ccnc(C3=C(N)N(c4ccccc4F)CC3=O)n2)cc1OC [Compound 1] | > 10 µM
2 | COc1ccc(-c2cnc(C3=C(N)N(c4ccccc4F)CC3=O)nc2)cc1OC [Compound 2] | > 10 µM
3 | COc1ccc(-c2cccc(C3=C(N)N(c4ccccc4F)CC3=O)n2)cc1OC [Compound 3] | > 10 µM
4 | COc1ccc(-c2cncc(C3=C(N)N(c4ccccc4F)CC3=O)n2)cc1OC [Compound 4] | 5 to 10 µM
5 | COc1ccc(-c2nccc(C3=C(N)N(c4ccccc4F)CC3=O)n2)cc1OC [Compound 5] | > 10 µM
6 | COc1ccc(-c2cncc(C3=C(N)N(c4ccccc4Cl)CC3=O)n2)cc1OC [Compound 6] | 5 to 10 µM
7 | COc1ccc(-c2cncc(C3=C(N)N(c4ccccc4Cl)CC3=O)c2)cc1OC [Compound 7] | > 10 µM
8 | NC1=C(c2cncc(-c3ccc4c(c3)OCO4)n2)C(=O)CN1c1ccccc1Cl [Compound 10] | > 10 µM
9 | NC1=C(c2cncc(-c3ccc4ocnc4c3)n2)C(=O)CN1c1ccccc1Cl [Compound 11] | > 10 µM
10 | NC1=C(c2cncc(-c3ccc4nccnc4c3)n2)C(=O)CN1c1ccccc1Cl [Compound 12] | > 10 µM
11 | COc1ccc(-c2cncc(C3=C(N)N(C4CCCC4)CC3=O)n2)cc1OC [Compound 14] | 5 to 10 µM
12 | COc1ccc(-c2cncc(C3=C(N)N(CC4CCCC4)CC3=O)n2)cc1OC [Compound 15] | 5 to 10 µM
13 | COc1cc2c(cc1OC)CN(c1cncc(C3=C(N)N(c4ccccc4Cl)CC3=O)n1)CC2 [Compound 16] | > 10 µM
14 | COc1ccc(-c2cncc(C3=C(N)N(CCC(F)(F)F)CC3=O)n2)cc1OC [Compound 17] | > 10 µM
15 | NC1=C(c2cncc(-c3ccc(O)c(O)c3)n2)C(=O)CN1CCC(F)(F)F [Compound 19] | > 10 µM
16 | COc1ccc(-c2cncc(C3=C(N)N(c4ccccc4Cl)CC3=O)n2)c(OC)c1 [Compound 20] | 5 to 10 µM
17 | COc1cc(-c2cncc(C3=C(N)N(c4ccccc4Cl)CC3=O)n2)cnc1OC [Compound 21] | > 10 µM
18 | COc1cc(OC)cc(-c2cncc(C3=C(N)N(c4ccccc4Cl)CC3=O)n2)c1 [Compound 22] | > 10 µM
19 | CNc1ccc(-c2cncc(C3=C(N)N(c4ccccc4Cl)CC3=O)n2)cc1NC [Compound 23] | > 10 µM
20 | NC1=C(c2cncc(-c3cc(O)cc(O)c3)n2)C(=O)CN1c1ccccc1Cl [Compound 24] | > 10 µM

Row | SMILES | EC50
21 | COC(CN1CCN(c2cncc(C3=C(N)N(c4ccccc4Cl)CC3=O)n2)CC1)OC [Compound 25] | > 10 µM
22 | CNc1ccc(-c2cncc(C3=C(N)N(CC(C)C)CC3=O)n2)cc1NC [Compound 26] | > 10 µM
23 | CC(C)CN1CC(=O)C(c2cncc(-c3ccc4c(c3)n(C)c(=O)n4C)n2)=C1N [Compound 27] | > 10 µM
24 | COc1ccc(-c2cncc(C3=C(N)N(c4ccccc4Cl)CC3=O)n2)cc1O [Compound 29] | > 10 µM
25 | NC1=C(c2cncc(-c3ccc(O)cc3O)n2)C(=O)CN1c1ccccc1Cl [Compound 30] | > 10 µM
26 | NC1=C(c2cncc(-c3ccc(OC(F)(F)F)c(O)c3)n2)C(=O)CN1c1ccccc1Cl [Compound 31] | > 10 µM
27 | NC1=C(c2cncc(-c3ccc(O)c(OC(F)(F)F)c3)n2)C(=O)CN1c1ccccc1Cl [Compound 32] | 5 to 10 µM
28 | NC1=C(c2cncc(-c3ccc4nc[nH]c4c3)n2)C(=O)CN1c1ccccc1Cl [Compound 34] | > 10 µM
29 | NC1=C(c2cnc(-c3ccc(O)c(O)c3)cn2)C(=O)CN1c1ccccc1Cl [Compound 35] | > 10 µM
30 | COc1ccc(-c2cncc(C3=C(N)N(CC4CCOC4)CC3=O)n2)cc1OC (stereo not drawn) [Compound 36] | > 10 µM
31 | COc1ccc(-c2cncc(C3=C(N)N(c4ccccc4OC)CC3=O)n2)cc1OC [Compound 37] | > 10 µM
32 | NC1=C(c2cncc(-c3cnc(O)c(O)c3)n2)C(=O)CN1c1ccccc1Cl [Compound 38] | > 10 µM
33 | COc1ccc(-c2cncc(C3=C(N)N(CC4CCNC4)CC3=O)n2)cc1OC (stereo not drawn) [Compound 39] | > 10 µM
34 | NC1=C(c2cncc(-c3ccc(O)c(O)c3)n2)C(=O)CN1CC1CCNC1 (stereo not drawn) [Compound 40] | > 10 µM
35 | NC1=C(c2cncc(-c3ccc(O)c(O)c3)n2)C(=O)CN1CC1CCOC1 (stereo not drawn) [Compound 41] | > 10 µM
36 | COc1ccc(-c2cncc(C3=C(N)N(c4ccccc4O)CC3=O)n2)cc1OC [Compound 42] | > 10 µM
37 | NC1=C(c2cncc(-c3ccc(O)c(O)c3)n2)C(=O)CN1c1ccccc1O [Compound 43] | > 10 µM
38 | COc1ccc(-c2cncc(C3=C(N)N(CCC4CCCC4)CC3=O)n2)cc1OC [Compound 44] | < 5 µM
39 | NC1=C(c2cncc(-c3ccc(O)c(O)c3)c2)C(=O)CN1c1ccccc1Cl [Compound 47] | > 10 µM
40 | COc1ccc(-c2cncc(C3=C(N)N(CC4CCCCC4)CC3=O)n2)cc1OC [Compound 48] | > 10 µM

Row | SMILES | EC50
41 | COc1ccc(-c2cncc(C3=C(N)N(CC4CCCC4)CC3=O)c2)cc1OC [Compound 50] | > 10 µM
42 | NC1=C(c2cncc(-c3ccc(O)c(O)c3)c2)C(=O)CN1CC1CCOC1 (stereo not drawn) [Compound 51] | > 10 µM
43 | COc1ccc(-c2cncc(C3=C(N)N(CC4CCN(C)C4)CC3=O)n2)cc1OC (stereo not drawn) [Compound 52] | > 10 µM
44 | CN1CCC(CN2CC(=O)C(c3cncc(-c4ccc(O)c(O)c4)n3)=C2N)C1 (stereo not drawn) [Compound 53] | > 10 µM
45 | NC1=C(c2cncc(-c3ccc(O)c(O)c3)c2)C(=O)CN1CC1CCCC1 [Compound 54] | > 10 µM
46 | COc1ccc(-c2cncc(C3=C(N)N(CC4CCNC4)CC3=O)c2)cc1OC (stereo not drawn) [Compound 55] | > 10 µM
47 | COc1ccc(-c2ccnc(C3=C(N)N(CC4CCCC4)CC3=O)n2)cc1OC [Compound 56] | > 10 µM
48 | NC1=C(c2ccnc(-c3ccc(O)c(O)c3)n2)C(=O)CN1c1ccccc1F [Compound 57] | < 5 µM
49 | COc1ccc(-c2ccc(C3=C(N)N(c4ccccc4Cl)CC3=O)cn2)cc1OC [Compound 58] | > 10 µM
50 | NC1=C(c2ccc(-c3ccc(O)c(O)c3)nc2)C(=O)CN1c1ccccc1Cl [Compound 59] | > 10 µM
51 | NC1=C(c2cncc(-c3ccc(O)c(O)c3)c2)C(=O)CN1CC1CCNC1 (stereo not drawn) [Compound 60] | > 10 µM
52 | COc1ccc(-c2cncc(C3=C(N)N(C4CCC(F)(F)C4)CC3=O)n2)cc1OC (stereo not drawn) [Compound 61] | > 10 µM
53 | COc1ccc(-c2cncc(C3=C(N)N(c4cccc(Cl)c4Cl)CC3=O)n2)cc1OC [Compound 63] | 5 to 10 µM
54 | NC1=C(c2cncc(-c3ccc(O)c(O)c3)n2)C(=O)CN1c1cccc(Cl)c1Cl [Compound 64] | 5 to 10 µM
55 | NC1=C(c2nccc(-c3ccc(O)c(O)c3)n2)C(=O)CN1CC1CCCC1 [Compound 65] | 5 to 10 µM
56 | COc1ccc(-c2cncc(C3=C(N)N(CC4CCC4)CC3=O)n2)cc1OC [Compound 66] | 5 to 10 µM
57 | NC1=C(c2cncc(-c3ccc(O)c(OC4CCC4)c3)n2)C(=O)CN1CC1CCCC1 [Compound 67] | > 10 µM
58 | COc1ccc(-c2cc(C3=C(N)N(c4ccccc4Cl)CC3=O)ncn2)cc1OC [Compound 68] | > 10 µM
59 | NC1=C(c2cncc(-c3ccc(O)c(OC4COC4)c3)n2)C(=O)CN1CC1CCCC1 [Compound 70] | < 5 µM
60 | COc1cc(-c2cncc(C3=C(N)N(CC4CCCC4)CC3=O)c2)ccc1O [Compound 71] | > 10 µM
